Measured values reported in patent US10669240B2, “5-substituted indazole-3-carboxamides and preparation and use thereof” (Samumed, LLC, priority 2014, dated 2020).
pEC50, pIC50: −log10 of the molar value.

Assays:
DYRK1A = DYRK1A (Homo sapiens (Human), UniProt Q13627); test: DYRK1A activity Tau assay: pSer396 Tau in SH-SY5Y cells by ELISA / western blot; type: cell-based; settings: overnight (16-18 h) exposure
[1] = tested on: Wnt activity (Wnt-responsive SP5 promoter luciferase reporter in SW480 cells); test: Wnt activity reporter assay: SW480 cells with SP5 promoter-driven firefly luciferase; type: cell-based; settings: Homo sapiens, 24 h after compound addition, read-out: Wnt inhibition
From the text: The above synthesized compounds were screened using the assay procedure for Wnt activity described below.
Reporter cell lines were generated by stably transducing cells of cancer cell lines (e.g., colon cancer) with a lentiviral construct that include a Wnt-responsive promoter driving expression of the firefly luciferase gene.
Lentiviral constructs were made in which the SP5 promoter, a promoter having eight TCF/LEF binding sites derived from the SP5 promoter, was linked upstream of the firefly luciferase gene. The lentiviral constructs included a hygromycin resistance gene as a selectable marker. The SP5 promoter construct was used to transduce SW480 cells, a colon cancer cell line having a mutated APC gene that generates a truncated APC protein, leading to de-regulated accumulation of β-catenin.
Cultured SW480 cells bearing a reporter construct were distributed at approximately 10,000 cells per well into 384 well multiwell plates. Compounds were then added to the wells in half-log dilutions using a three micromolar top concentration. A series of control wells for each cell type received only buffer and compound solvent. Twenty-four hours after the addition of compound, reporter activity for luciferases was assayed, for example, by addition of the BrightGlo luminescence reagent (Promega) and the Victor3 plate reader (Perkin Elmer). Readings were normalized to DMSO only treated cells, and normalized activities were then used for the IC50 calculations.

Question: What does the source list for CCN1CCC(NC(=O)c2n[nH]c3cc(F)c(-c4cncc5ccccc45)cc23)CC1 [Compound 1293, N-(1-Ethylpiperidin-4-yl)-6-fluoro-5-(isoquinolin-4-yl)-1H-indazole-3-carboxamide]?
Answer: pEC50 (DYRK1A): 6.68; pIC50 [1]: 5.67

Question: How did the pEC50 (DYRK1A) turn out when O=C(Nc1ccc(F)cc1)c1n[nH]c2ccc(-c3cncc(F)c3)cc12 [Compound 1341, N-(4-Fluorophenyl)-5-(5-fluoropyridin-3-yl)-1H-indazole-3-carboxamide] was run?
Answer: 7.44

Question: And the pIC50 [1]?
Answer: 5.32

Question: O=C(NCCN1CCCCC1)c1n[nH]c2ccc(-c3cccnc3)cc12 [Compound 1265, N-(2-(Piperidin-1-yl)ethyl)-5-(pyridin-3-yl)-1H-indazole-3-carboxamide] was tested. Which pEC50 (DYRK1A) did it give?
Answer: 7.77

Question: And the pIC50 [1]?
Answer: 5.92

Question: With CN1CCC2(CC1)CC(NC(=O)c1n[nH]c3ccc(-c4cccc(F)c4F)cc13)C2 [Compound 1278, 5-(2,3-Difluorophenyl)-N-(7-methyl-7-azaspiro[3.5]nonan-2-yl)-1H-indazole-3-carboxamide] as the molecule, how does the pEC50 (DYRK1A) read?
Answer: 7.85

Question: And the pIC50 [1]?
Answer: 5.26

Question: With CN1CCN(c2ccc(NC(=O)c3n[nH]c4ccc(-c5cncc(NC(=O)c6c(F)cccc6F)c5)cc34)cn2)CC1 [Compound 49, 5-(5-(2,6-Difluorobenzamido)pyridin-3-yl)-N-(6-(4-methylpiperazin-1-yl)pyridin-3-yl)-1H-indazole-3-carboxamide] as the molecule, how does the pIC50 [1] read?
Answer: 6.65

Question: With O=C(NCc1cc(F)cc(F)c1)c1n[nH]c2ccc(-c3cncc(CN4CCCCC4)c3)cc12 [Compound 28, N-(3,5-Difluorobenzyl)-5-(5-(piperidin-1-ylmethyl)pyridin-3-yl)-1H-indazole-3-carboxamide] as the molecule, how does the pEC50 (DYRK1A) read?
Answer: 8.70

Question: What about the pIC50 [1] of the same molecule?
Answer: 5.51

Question: [2H]C([2H])([2H])Oc1ccc(NC(=O)c2n[nH]c3ccc(-c4cncc(C([2H])([2H])N5CCCCC5)c4)cc23)cn1 [Compound 69, N-(6-(methoxy-d3)pyridin-3-yl)-5-(5-(piperidin-1-ylmethyl-d2)pyridin-3-yl)-1H-indazole-3-carboxamide] was tested. Which pIC50 [1] did it give?
Answer: 7.35

Question: With O=C(NC1CCCCC1)c1n[nH]c2ccc(-c3cccnc3)cc12 [Compound 4, N-Cyclohexyl-5-(pyridin-3-yl)-1H-indazole-3-carboxamide] as the molecule, how does the pEC50 (DYRK1A) read?
Answer: 7.46

Question: What about the pIC50 [1] of the same molecule?
Answer: 5.35

Question: With Cc1cc2[nH]nc(C(=O)Nc3ccc(CN4CCCC4)cc3)c2cc1-c1cccnc1 [Compound 1331, 6-Methyl-5-(pyridin-3-yl)-N-(4-(pyrrolidin-1-ylmethyl)phenyl)-1H-indazole-3-carboxamide] as the molecule, how does the pEC50 (DYRK1A) read?
Answer: 7.77

Question: And the pIC50 [1]?
Answer: 5.85

Question: With O=C(Nc1cnccn1)c1n[nH]c2ccc(-c3cncc(CN4CCCCCC4)c3)cc12 [Compound 88, 5-(5-(Azepan-1-ylmethyl)pyridin-3-yl)-N-(pyrazin-2-yl)-1H-indazole-3-carboxamide] as the molecule, how does the pIC50 [1] read?
Answer: 6.37

Question: What does the source list for O=C(NCCN1CCOCC1)c1n[nH]c2ccc(-c3cccnc3)cc12 [Compound 1267, N-(2-Morpholinoethyl)-5-(pyridin-3-yl)-1H-indazole-3-carboxamide]?
Answer: pEC50 (DYRK1A): 8.30; pIC50 [1]: 5.82

Question: How did the pEC50 (DYRK1A) turn out when N[C@H]1CC[C@H](NC(=O)c2n[nH]c3ccc(-c4cccnc4)cc23)CC1 [Compound 1286, N-((1r,4r)-4-Aminocyclohexyl)-5-(pyridin-3-yl)-1H-indazole-3-carboxamide] was run?
Answer: 8.70

Question: What about the pIC50 [1] of the same molecule?
Answer: 5.43

Question: Which results are given for O=C(NC1CCN(CC(F)F)CC1)c1n[nH]c2ccc(-c3cncc(F)c3)cc12 [Compound 1298, N-(1-(2,2-Difluoroethyl)piperidin-4-yl)-5-(5-fluoropyridin-3-yl)-1H-indazole-3-carboxamide]?
Answer: pEC50 (DYRK1A): 7.55; pIC50 [1]: 5.92

Question: With NC1CN(c2cncc(-c3ccc4[nH]nc(C(=O)Nc5cncc(-c6cccc(F)c6)c5)c4c3)n2)C1 [Compound 1344, 5-(6-(3-Aminoazetidin-1-yl)pyrazin-2-yl)-N-(5-(3-fluorophenyl)pyridin-3-yl)-1H-indazole-3-carboxamide] as the molecule, how does the pEC50 (DYRK1A) read?
Answer: 7.82

Question: What about the pIC50 [1] of the same molecule?
Answer: 5.53

Question: With O=C(Nc1cccnc1)c1n[nH]c2ccc(-c3cncc(CN4CC(CO)(CO)C4)c3)cc12 [Compound 50, 5-(5-((3,3-Bis(hydroxymethyl)azetidin-1-yl)methyl)pyridin-3-yl)-N-(pyridin-3-yl)-1H-indazole-3-carboxamide] as the molecule, how does the pIC50 [1] read?
Answer: 5.00

Question: How did the pIC50 [1] turn out when CC(C)OCCCNC(=O)c1n[nH]c2ccc(-c3cncc(F)c3)cc12 [Compound 1263, 5-(5-Fluoropyridin-3-yl)-N-(3-isopropoxypropyl)-1H-indazole-3-carboxamide] was run?
Answer: 5.85

Question: How did the pIC50 [1] turn out when [2H]C([2H])([2H])Oc1ccc(NC(=O)c2n[nH]c3ccc(-c4cncc(CN5CCCCC5)c4)cc23)cn1 [Compound 68, N-(6-(Methoxy-d3)pyridin-3-yl)-5-(5-(piperidin-1-ylmethyl)pyridin-3-yl)-1H-indazole-3-carboxamide] was run?
Answer: 7.24

Question: How did the pIC50 [1] turn out when O=C(Nc1cccnc1)c1n[nH]c2ccc(-c3cncc(CN4CCS(=O)(=O)CC4)c3)cc12 [Compound 86, 5-(5-((1,1-Dioxidothiomorpholino)methyl)pyridin-3-yl)-N-(pyridin-3-yl)-1H-indazole-3-carboxamide] was run?
Answer: 6.68

Question: With O=C(Nc1ccc(OC(CO)CO)nc1)c1n[nH]c2ccc(-c3cncc(CN4CCCCC4)c3)cc12 [Compound 70, N-(6-((1,3-Dihydroxypropan-2-yl)oxy)pyridin-3-yl)-5-(5-(piperidin-1-ylmethyl)pyridin-3-yl)-1H-indazole-3-carboxamide] as the molecule, how does the pIC50 [1] read?
Answer: 6.30

Question: How did the pIC50 [1] turn out when O=C(Nc1ccc(N2CC(CO)(CO)C2)nc1)c1n[nH]c2ccc(-c3cncc(CN4CCCCC4)c3)cc12 [Compound 72, N-(6-(3,3-Bis(hydroxymethyl)azetidin-1-yl)pyridin-3-yl)-5-(5-(piperidin-1-ylmethyl)pyridin-3-yl)-1H-indazole-3-carboxamide] was run?
Answer: 5.82

Question: How did the pEC50 (DYRK1A) turn out when CN1CCC(NC(=O)c2n[nH]c3ccc(-c4cncc(CN5CCC(F)(F)C5)c4)cc23)CC1 [Compound 10, 5-(5-((3,3-Difluoropyrrolidin-1-yl)methyl)pyridin-3-yl)-N-(1-methylpiperidin-4-yl)-1H-indazole-3-carboxamide] was run?
Answer: 8.10

Question: CC(C)CNC(=O)c1n[nH]c2ccc(-c3cccnc3F)cc12 [Compound 1336, 5-(2-Fluoropyridin-3-yl)-N-isobutyl-1H-indazole-3-carboxamide] was tested. Which pEC50 (DYRK1A) did it give?
Answer: 7.66

Question: How did the pEC50 (DYRK1A) turn out when COc1cccc(-c2ccc3[nH]nc(C(=O)NC(C)C)c3c2)c1F [Compound 1339, 5-(2-Fluoro-3-methoxyphenyl)-N-isopropyl-1H-indazole-3-carboxamide] was run?
Answer: < 5.00

Question: How did the pEC50 (DYRK1A) turn out when CC(C)NC(=O)c1n[nH]c2ccc(-c3cncc(CN4CCCCC4)c3)cc12 [Compound 131, N-Isopropyl-5-(5-(piperidin-1-ylmethyl)pyridin-3-yl)-1H-indazole-3-carboxamide] was run?
Answer: 8.00

Question: With O=C(NC1CCC(F)(F)CC1)c1n[nH]c2ccc(-c3cncc(F)c3)cc12 [Compound 1284, N-(4,4-Difluorocyclohexyl)-5-(5-fluoropyridin-3-yl)-1H-indazole-3-carboxamide] as the molecule, how does the pEC50 (DYRK1A) read?
Answer: 7.77

Question: CC(C)(F)CN1CCC(NC(=O)c2n[nH]c3ccc(-c4ccc(F)nc4)cc23)CC1 [Compound 1321, N-(1-(2-Fluoro-2-methylpropyl)piperidin-4-yl)-5-(6-fluoropyridin-3-yl)-1H-indazole-3-carboxamide] was tested. Which pEC50 (DYRK1A) did it give?
Answer: 7.85

Question: With CC(C)CNC(=O)c1n[nH]c2ccc(-c3cncc(Cl)c3)cc12 [Compound 1255, 5-(5-Chloropyridin-3-yl)-N-isobutyl-1H-indazole-3-carboxamide] as the molecule, how does the pEC50 (DYRK1A) read?
Answer: 7.46

Question: With O=C(NC1CCN(CC2CC2)CC1)c1n[nH]c2ccc(-c3cncc(F)c3)cc12 [Compound 1312, N-(1-(Cyclopropylmethyl)piperidin-4-yl)-5-(5-fluoropyridin-3-yl)-1H-indazole-3-carboxamide] as the molecule, how does the pEC50 (DYRK1A) read?
Answer: 7.48

Question: How did the pEC50 (DYRK1A) turn out when O=C(NC1(c2ccccc2)CC1)c1n[nH]c2ccc(-c3cccnc3)cc12 [Compound 32, N-(1-Phenylcyclopropyl)-5-(pyridin-3-yl)-1H-indazole-3-carboxamide] was run?
Answer: 6.55

Question: How did the pEC50 (DYRK1A) turn out when O=C(NC1CCN(CCF)CC1)c1n[nH]c2ccc(-c3cccnc3)cc12 [Compound 1180, N-(1-(2-Fluoroethyl)piperidin-4-yl)-5-(pyridin-3-yl)-1H-indazole-3-carboxamide] was run?
Answer: 8.22

Question: CC(C)NC(=O)c1n[nH]c2ccc(-c3cncc(F)c3)cc12 [Compound 1250, 5-(5-Fluoropyridin-3-yl)-N-isopropyl-1H-indazole-3-carboxamide] was tested. Which pEC50 (DYRK1A) did it give?
Answer: 7.31

Question: With O=C(Nc1ccc(CN2CCCC2)cc1)c1n[nH]c2ccc(-c3cccnc3)cc12 [Compound 1326, 5-(Pyridin-3-yl)-N-(4-(pyrrolidin-1-ylmethyl)phenyl)-1H-indazole-3-carboxamide] as the molecule, how does the pEC50 (DYRK1A) read?
Answer: 8.00

Question: With CC(C)NC(=O)c1n[nH]c2ccc(-c3cncc(Cl)c3)cc12 [Compound 1247, 5-(5-Chloropyridin-3-yl)-N-isopropyl-1H-indazole-3-carboxamide] as the molecule, how does the pEC50 (DYRK1A) read?
Answer: 7.28

Question: O=C(NC1CCCCC1)c1n[nH]c2ccc(-c3cncc(F)c3)cc12 [Compound 1282, N-Cyclohexyl-5-(5-fluoropyridin-3-yl)-1H-indazole-3-carboxamide] was tested. Which pEC50 (DYRK1A) did it give?
Answer: 7.66

Question: CN1CCN(c2ccc(NC(=O)c3n[nH]c4ccc(-c5cncc(NC(=O)c6ccc(F)cc6F)c5)cc34)cn2)CC1 [Compound 47, 5-(5-(2,4-Difluorobenzamido)pyridin-3-yl)-N-(6-(4-methylpiperazin-1-yl)pyridin-3-yl)-1H-indazole-3-carboxamide] was tested. Which pIC50 [1] did it give?
Answer: 6.48
